Measured values: article PMC4589873, “A pain-inducing centipede toxin targets the heat activation machinery of nociceptor TRPV1” (Nature Communications, 2015)
Entries after “also recorded” stand apart in the source; their conditions may differ. Where a SMILES comes first, the peptide text is derived from it. Bridges are numbered along the chain shown (N, C = ends).

How the values were obtained:
mTRPV3 = experiment: Selectivity recording on mTRPV3; assay type: cell-based, mouse; conditions: RhTx at 10 μM
Procedure: (§1) As described in details in a previous report, macroscopic currents (in whole-cell, inside-out or outside-out configuration) as well as single-channel currents were recorded using a HEKA EPC10 amplifier with the PatchMaster software (HEKA). Both pipette solution and bath solution contained 130 mM NaCl, 3 mM HEPES and 0.2 mM EDTA (pH 7.2). All recordings were performed at room temperature unless otherwise stated. A holding potential of 0 mV was used from which a testing pulse to +80 mV was applied. Statistical difference was determined using the Student’s t-test, and indicated by ** when reaching the significance level P<0.001.
(§2) Supplementary Figure 3. […]
(§3) mTRPV2 (c), mTRPV3 (d) and mTRPV4 (e). (f) Treatment with 10 μM RhTx (red traces)

mTRPV2 = experiment: Selectivity recording on mTRPV2; assay type: cell-based, mouse; conditions: RhTx at 10 μM
Procedure: as §1, §2, §3

[1] = tested on: voltage-gated Na channels; experiment: Selectivity recording on voltage-gated Na channels; assay type: cell-based; conditions: 10 μM RhTx compared to toxin-free treatment
Procedure: as §2, §3

WT mice [2] = experiment: Colonic temperature after intraperitoneal injection; assay type: in vivo, mouse; conditions: WT mice n=6, intraperitoneal, 10 μmol kg^−1
Procedure: (§4) In vivo effects of RhTx on WT mice or Trpv1^−/− mice were examined according to protocols described previously. For the paw-licking assay, pain was induced in mice by intraplantar injection of 0.1% formalin, capsaicin (1 μmol per paw) or RhTx (1 μmol per paw). Each of the testing materials was dissolved in 100 μl saline. Control mice received the same volume of saline. Injected mice were placed individually into open polyvinyl cages (20 × 40 × 15 cm). Time spent licking the injected paw was recorded by a digital video camera during the following 40 min. For recording colonic temperature from WT or Trpv1^−/− mice, mice equipped with a copper-constantan thermocouple were individually placed in open polyvinyl cages. A data logger was connected to the thermocouple. Mice were injected intraperitoneally with 100 μl saline containing capsaicin or RhTx. The dose of capsaicin or RhTx was 10 μmol kg^−1 for these experiments. Mice in the control group received the same volume of saline.

Trpv1−/− knockout mice = experiment: Paw-licking assay in TRPV1 knockout mice; assay type: in vivo, mouse; conditions: intraplantar, 1 μmol per paw
Procedure: as §4

TRPV1 [3] = experiment: RhTx-induced desensitization of TRPV1 heat activation, inside-out patch; assay type: cell-based; conditions: 10 μM RhTx in patch pipette solution, inside-out patches, heating to 55 °C, n=8
Description: For recording the RhTx-induced desensitization of TRPV1, temperature control was achieved by perfusion of preheated or room-temperature bathing solution. Hot bathing solution were maintained at expected temperature with an SH-27B in-line solution heater controlled by a TC-324C temperature controller (Warner). A solution exchanger RSC-200 with eight separate tubes to deliver room-temperature bathing solution and capsaicin. A TA-29 miniature bead thermistor (Harvard Apparatus) was placed right next to the pipette to ensure accurate monitoring of local temperature.

[4] = tested on: mTRPV1 point mutants at D602, Y632, T634 and L461; experiment: Whole-cell current of mTRPV1 point mutants; assay type: cell-based, mouse; conditions: glycine or alanine mutation, both at 10 μM, +80 mV
Description: TRPV1 and TRPV3 chimeras used in this study were generated by the overlapping extension method[54] and confirmed by DNA sequencing, as described previously. Briefly, to generate V1/3S, the primer pairs (5′-[…]-3′and 5′-[…]-3′) were used. To generate other TRPV1/TRPV3 chimeras, the enzyme cutting sites by MluI were made by the primer pair (5′-[…]-3′ and 5′-[…]-3′) for TRPV1 and the primer pair (5′-[…]-3′ and 5′-[…]-3′) for TRPV3. The enzyme cutting sites by PvuI were made by the primer pair (5′-[…]-3′ and 5′-[…]-3′) for TRPV1 and the primer pair (5′-[…]-3′ and 5′-[…]-3′) for TRPV3. The enzyme cutting sites by BsiWI were made by the primer pair (5′-[…]-3′ and 5′-[…]-3′) for TRPV1 and the primer pair (5′-[…]-3′ and 5′-[…]-3′) for TRPV3. V1/3M were generated by enzyme cut and paste between MluI and PvuI sites, while V1/3L were generated by enzyme cut and paste between MluI and BsiWI sites. V1_S1S2_1, V1_S1S2_3 and V1_S1S2_3 were generated as previously reported. […]
As described in details in a previous report, macroscopic currents (in whole-cell, inside-out or outside-out configuration) as well as single-channel currents were recorded using a HEKA EPC10 amplifier with the PatchMaster software (HEKA). […] Statistical difference was determined using the Student’s t-test, and indicated by ** when reaching the significance level P<0.001.

mTRPV1 = target: T1, mTRPV1 (Mus musculus, UniProt Q704Y3); experiment: Inside-out patch, toxin applied from the intracellular side; assay type: cell-based; conditions: inside-out patch containing mTRPV1, holding 0 mV, testing +80 mV
T1 construct: expressed in transfected cells; host or cells: HEK-293T
T1 sequence (Q704Y3 whole entry): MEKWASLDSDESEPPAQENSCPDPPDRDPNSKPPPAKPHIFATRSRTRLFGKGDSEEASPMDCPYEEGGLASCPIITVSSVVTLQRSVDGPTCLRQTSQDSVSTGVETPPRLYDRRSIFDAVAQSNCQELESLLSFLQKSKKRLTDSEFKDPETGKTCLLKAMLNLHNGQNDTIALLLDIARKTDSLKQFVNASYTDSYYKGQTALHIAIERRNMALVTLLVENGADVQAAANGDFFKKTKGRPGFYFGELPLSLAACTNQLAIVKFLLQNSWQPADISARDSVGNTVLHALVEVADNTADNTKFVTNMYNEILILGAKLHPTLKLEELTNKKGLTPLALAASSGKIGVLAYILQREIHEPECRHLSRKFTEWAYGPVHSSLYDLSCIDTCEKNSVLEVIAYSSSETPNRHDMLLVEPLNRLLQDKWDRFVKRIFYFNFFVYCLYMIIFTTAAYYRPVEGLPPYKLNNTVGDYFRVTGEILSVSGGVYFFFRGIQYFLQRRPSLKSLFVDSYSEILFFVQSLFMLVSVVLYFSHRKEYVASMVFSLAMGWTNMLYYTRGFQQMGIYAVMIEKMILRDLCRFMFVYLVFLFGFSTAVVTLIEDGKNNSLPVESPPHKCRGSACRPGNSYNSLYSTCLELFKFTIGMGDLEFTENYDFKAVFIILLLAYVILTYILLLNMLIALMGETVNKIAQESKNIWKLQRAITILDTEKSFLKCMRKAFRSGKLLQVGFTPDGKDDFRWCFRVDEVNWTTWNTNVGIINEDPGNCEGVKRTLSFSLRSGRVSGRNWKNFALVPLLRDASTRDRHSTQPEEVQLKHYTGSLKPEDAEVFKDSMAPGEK
Procedure: as §1

hTRPV1 = experiment: Whole-cell recording of hTRPV1; assay type: cell-based, human
Procedure: as §1
Supplementary Figure 3. […] (a) A representative whole-cell recording of hTRPV1 treated with RhTx or capsaicin. (b) Comparison of the dose-response relationships between hTRPV1 and mTRPV1. […]
mTRPV2 (c), mTRPV3 (d) and mTRPV4 (e). (f) Treatment with 10 μM RhTx (red traces) […]
(1 picture or pasted object on this page, not shown here)

WT mice [5] = experiment: Paw-licking assay, intraplantar injection; assay type: in vivo, mouse; conditions: 1 μmol per paw in 100 μl saline, 40 min observation
Procedure: as §4
Supplementary Figure 1. Centipede crude venom -induced paw licking. Pain behavior was induced in mice b y intraplan tar injection of centipede crude venom. After crude venom injection, mice were immediately placed individually into open polyvinyl cages (20 × 40 × 15 cm). The time spent licking the injected paw was recorded by digital video camera during 0- 10 minutes […]

TRPV1 [6] = experiment: Cooling of RhTx- or capsaicin-induced channel activation; assay type: cell-based; conditions: RhTx at 1 μM
Procedure: as §1

TRPV1 [7] = experiment: Infrared laser-induced heat activation, inside-out patch; assay type: cell-based
Procedure: The experimental set-up for rapidly heating cell membrane containing expressed TRPV1 channels was described in a previous report. Electrophysiological recordings were done in the inside-out mode. Toxin was added in the pipette solution. Laser light of 1,443 nm was generated by a laser diode (Fitel) driven by a controller (Thorlabs). The maximal optic output power of the laser was 250 mW. The laser light was transmitted to the voltage-clamped cell membrane through a single-mode optical fibre (125 μm outer diameter, 10 μm light-conducting core diameter), with the patch pipette tip placed in front of the centre of the optical fibre. Light energy was absorbed by water and converted to heat to drive channel activation. To calibrate the laser heating system, the relationship between laser driving power and temperature was tabulated as previously described. Briefly, a glass pipette was filled with a solution distinct from the bath solution and was centred at the end of the optical fibre. The laser driving power was adjusted to produce junction potential values matching those measured in the same solutions at different temperatures.

CC[C@H](C)[C@H](NC(=O)[C@@H]1CSSC[C@@H]2NC(=O)[C@H]([C@@H](C)O)NC(=O)[C@H](C(C)C)NC(=O)CNC(=O)[C@H](CC(N)=O)NC(=O)[C@@H](NC(=O)[C@@H]3CCCN3C(=O)[C@H](CC(N)=O)NC(=O)[C@H](CC(N)=O)NC(=O)[C@@H](N)CC(C)C)CSSC[C@H](NC(=O)[C@H](CCCNC(=N)N)NC(=O)[C@H](Cc3ccc(O)cc3)NC(=O)CNC(=O)[C@H](CO)NC(=O)[C@@H]3CCCN3C2=O)C(=O)N[C@@H](CO)C(=O)N[C@@H]([C@@H](C)CC)C(=O)N[C@@H](C(C)C)C(=O)N[C@@H](CC(=O)O)C(=O)N[C@@H](CCCCN)C(=O)N[C@@H](CCC(N)=O)C(=O)N1)C(=O)N[C@@H](CCCCN)C(=O)N[C@@H](CCCCN)C(=O)N[C@@H](CCC(=O)O)C(=O)O [RhTx] (H-LNNPCNGVTCPSGYRCSIVDKQCIKKE-OH; disulfide 5-16, 10-23; N-terminus and C-terminus assumed)
response of TRPV3 (mTRPV3): no detectable effect; also recorded: no discernable response
response of TRPV2 (mTRPV2): no detectable effect; also recorded: no discernable response
effect on voltage-gated Na channels [1]: no detectable effect; also recorded: no discernable response
core (colonic) temperature (WT mice [2]): rapid drop in core temperature
pain behaviour (paw licking) in knockout mice (Trpv1−/− knockout mice): ineffective
TRPV1 heat response after extended incubation with toxin (TRPV1 [3]): selectively desensitized TRPV1 heat activation but not capsaicin activation; also recorded: incapable to respond to heat
agonist-induced current in point mutants versus WT channel [4]: markedly reduced
activity when applied from the intracellular side (mTRPV1): completely ineffective; also recorded: no activity
activation of human TRPV1 (hTRPV1): strongly activated
pain behaviour (paw licking) (WT mice [5]): elicited similar pain behaviour
effect of lowering the experimental temperature on agonist-induced channel activation (TRPV1 [6]): completely prohibited
effect on infrared laser-induced heat activation, 50 nM (TRPV1 [7]; RhTx at 50 nM in pipette, inside-out patch, +80 mV): substantially potentiated
lowering of the activation threshold temperature (TRPV1 [7]; RhTx at 100 nM): 6 °C
effect on infrared laser-induced heat activation, 100 nM (TRPV1 [7]; RhTx at 100 nM in pipette, inside-out patch, +80 mV): substantially potentiated
